Assay [1] relates to AMO-1 human multiple myeloma tumor cell line. The assay can be described thus: AMO-1 cell viability assay (CellTiter-Glo, 24 hours). Type of assay: cell-based. The conditions noted are these: Homo sapiens, AMO1, 24 h, read-out: AMO-1 Viability IC50 (μM, 10% FBS), 10% FBS, 24 hours of compound treatment.
Assay [2] has as its system NCI-H929 human multiple myeloma tumor cell line. The experiment in a line: NCI-H929 cell viability assay (CellTiter-Glo, 24 hours). The conditions noted are these: Homo sapiens, NCI-H929, 24 h, read-out: H929 Viability IC50 (μM, 10% FBS), 10% FBS, 24 hours of compound treatment. The class given is cell-based.
Assay [3] concerns the target GST-MCL-1 (Homo sapiens, UniProt Q07820). The assay can be described thus: TR-FRET MCL-1 binding assay (competition with probe F-Bak). The conditions noted are these: for Ki: MCL-1 Binding Ki (nM, 10% HS), in the presence of 10% HS (human serum); for pKi: without HS, read-out: MCL-1 Binding Ki. A digest of the protocol: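 Test compounds, 11 three-fold dilutions from 25 μM final, incubated 2 hours at room temperature with GST-MCL-1, F-Bak probe and Tb-anti-GST antibody. TR-FRET read at 340/35 nm excitation with 520/525 and 495/510 nm emission. Run without human serum and with 10% HS.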
(In general: In TR-FRET formats the signal depends on donor and acceptor labels being close together.)

pKi: −log10 of the molar value. Like-named read-outs stand apart in the source and are kept apart here.

GST-MCL-1, sequence (Q07820 whole entry): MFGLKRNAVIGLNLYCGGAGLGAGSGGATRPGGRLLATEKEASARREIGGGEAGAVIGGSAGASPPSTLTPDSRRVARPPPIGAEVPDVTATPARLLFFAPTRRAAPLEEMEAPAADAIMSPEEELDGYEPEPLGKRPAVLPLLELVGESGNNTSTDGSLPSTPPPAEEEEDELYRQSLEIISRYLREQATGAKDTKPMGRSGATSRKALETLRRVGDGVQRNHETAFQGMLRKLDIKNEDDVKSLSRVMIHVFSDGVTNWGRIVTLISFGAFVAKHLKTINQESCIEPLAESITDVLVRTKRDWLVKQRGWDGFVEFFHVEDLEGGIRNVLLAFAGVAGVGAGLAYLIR

One may read the IC50 as the concentration needed to halve the response being measured. The Ki is a dissociation constant, usually derived from enzyme kinetics or from competition with a known ligand. As usually defined, the pKi is the Ki on a negative log10 scale, so that one unit is a factor of ten. Consider `Cc1c(Cl)c2c(Cl)c(C)c1-c1c(-c3ccc(F)cc3)sc3ncnc(c13)O[C@@H](C(=O)O)Cc1cc(ccc1OCc1ccnc(-c3ccccc3S(C)(=N)=O)n1)OCC(CN1CCN(C)CC1)O2` (stereo partly drawn) [Example 26, (7R,16R)-19,23-dichloro-1-(4-fluorophenyl)-10-({2-[2-(S-methanesulfonimidoyl)phenyl]pyrimidin-4-yl}methoxy)-20,22-dimethyl-16-[(4-methylpiperazin-1-yl)methyl]-7,8,15,16-tetrahydro-18,21-etheno-13,9-(metheno)-6,14,17-trioxa-2-thia-3,5-diazacyclononadeca[1,2,3-cd]indene-7-carboxylic Acid], for which the IC50 in assay [1] stood at 0.00112 µM. Besides, the IC50 in assay [2] was 0.00289 µM. In assay [3], the Ki was found to be 0.11 nM and the pKi is 10.68.
For `Cc1c2ccc(c1Cl)O[C@H](CN1CCN(C)CC1)COc1ccc(OCc3ccnc(-c4cccc(=O)n4C)n3)c(c1)C[C@H](C(=O)O)Oc1ncnc3sc(-c4ccc(F)cc4)c-2c13` [Example 28, (7R,16R)-19-chloro-1-(4-fluorophenyl)-20-methyl-10-{[2-(1-methyl-6-oxo-1,6-dihydropyridin-2-yl)pyrimidin-4-yl]methoxy}-16-[(4-methylpiperazin-1-yl)methyl]-7,8,15,16-tetrahydro-18,21-etheno-13,9-(metheno)-6,14,17-trioxa-2-thia-3,5-diazacyclononadeca[1,2,3-cd]indene-7-carboxylic Acid], in that order: 0.00269 µM, 0.00583 µM, 0.027 nM and 10.68.
On to `COCCOCCOCCOCC1(c2nccc(COc3ccc4cc3C[C@H](C(=O)O)Oc3ncnc5sc(-c6ccc(F)cc6)c(c35)-c3c(C)c(Cl)c(c(Cl)c3C)O[C@H](CN3CCN(C)CC3)CO4)n2)CC1` [Example 29, (7R,16R)-19,23-dichloro-1-(4-fluorophenyl)-20,22-dimethyl-16-[(4-methylpiperazin-1-yl)methyl]-10-({2-[1-(2,5,8,11-tetraoxadodecan-1-yl)cyclopropyl]pyrimidin-4-yl}methoxy)-7,8,15,16-tetrahydro-18,21-etheno-13,9-(metheno)-6,14,17-trioxa-2-thia-3,5-diazacyclononadeca[1,2,3-cd]indene-7-carboxylic Acid], for which the IC50 in assay [1] came to 0.000894 µM. Further, in assay [2], the IC50 came to 0.000942 µM. Further, in assay [3], the Ki was found to be 1.21 nM and the pKi was 9.69.
As for `Cc1c(Cl)c2c(Cl)c(C)c1-c1c(-c3ccc(F)cc3)sc3ncnc(c13)O[C@@H](C(=O)O)Cc1cc(ccc1OCc1ccnc(-c3ccc(S(C)(=N)=O)cc3)n1)OC[C@@H](CN1CCN(C)CC1)O2` (stereo partly drawn) [Example 30, (7R,16R)-19,23-dichloro-1-(4-fluorophenyl)-10-({2-[4-(S-methanesulfonimidoyl)phenyl]pyrimidin-4-yl}methoxy)-20,22-dimethyl-16-[(4-methylpiperazin-1-yl)methyl]-7,8,15,16-tetrahydro-18,21-etheno-13,9-(metheno)-6,14,17-trioxa-2-thia-3,5-diazacyclononadeca[1,2,3-cd]indene-7-carboxylic Acid], the IC50 in assay [1] amounted to 0.00277 µM. Further, the IC50 in assay [2] came out at 0.00356 µM. In assay [3], the Ki worked out at 0.252 nM and the pKi was 10.48.
As to `Cc1c(Cl)c2c(Cl)c(C)c1-c1c(-c3ccc(F)cc3)sc3ncnc(c13)O[C@@H](C(=O)O)Cc1cc(ccc1OCc1ccnc([C@H]3CC[C@@H](CC(=O)O)CC3)n1)OC[C@@H](CN1CCN(C)CC1)O2` [Example 31, (7R,16R)-10-({2-[(1 s,4s)-4-(carboxymethyl)cyclohexyl]pyrimidin-4-yl}methoxy)-19,23-dichloro-1-(4-fluorophenyl)-20,22-dimethyl-16-[(4-methylpiperazin-1-yl)methyl]-7,8,15,16-tetrahydro-18,21-etheno-13,9-(metheno)-6,14,17-trioxa-2-thia-3,5-diazacyclononadeca[1,2,3-cd]indene-7-carboxylic Acid], the IC50 in assay [1] was found to be 0.00743 µM; in assay [2], 0.0133 µM. The Ki in assay [3] stood at 0.049 nM. For the same compound, in assay [3], the pKi was 11.40.
For `Cc1c(Cl)c2c(Cl)c(C)c1-c1c(-c3ccc(F)cc3)sc3ncnc(c13)O[C@@H](C(=O)O)Cc1cc(ccc1OCc1ccnc([C@H]3CC[C@H](CC(=O)O)CC3)n1)OC[C@@H](CN1CCN(C)CC1)O2` [Example 32, (7R,16R)-10-({2-[(1r,4r)-4-(carboxymethyl)cyclohexyl]pyrimidin-4-yl}methoxy)-19,23-dichloro-1-(4-fluorophenyl)-20,22-dimethyl-16-[(4-methylpiperazin-1-yl)methyl]-7,8,15,16-tetrahydro-18,21-etheno-13,9-(metheno)-6,14,17-trioxa-2-thia-3,5-diazacyclononadeca[1,2,3-cd]indene-7-carboxylic Acid], in that order: 0.00878 µM, 0.0143 µM, 0.034 nM and 11.52.
For `Cc1c(Cl)c2c(Cl)c(C)c1-c1c(-c3ccc(F)cc3)sc3ncnc(c13)O[C@@H](C(=O)O)Cc1cc(ccc1OCc1ccnc(N3CC4C(C3)C4(F)F)n1)OC[C@@H](CN1CCN(C)CC1)O2` (stereo partly drawn) [Example 33, (7R,16R)-19,23-dichloro-10-{[2-(6,6-difluoro-3-azabicyclo[3.1.0]hexan-3-yl)pyrimidin-4-yl]methoxy}-1-(4-fluorophenyl)-20,22-dimethyl-16-[(4-methylpiperazin-1-yl)methyl]-7,8,15,16-tetrahydro-18,21-etheno-13,9-(metheno)-6,14,17-trioxa-2-thia-3,5-diazacyclononadeca[1,2,3-cd]indene-7-carboxylic Acid], in that order: 0.000282 µM, 0.00123 µM, 2.23 nM and 10.06.
Turning to `Cc1c(Cl)c2c(Cl)c(C)c1-c1c(-c3ccc(F)cc3)sc3ncnc(c13)O[C@@H](C(=O)O)Cc1cc(ccc1OCc1ccnc(C3=CCS(=O)(=O)CC3)n1)OC[C@@H](CN1CCN(C)CC1)O2` [Example 34, (7R,16R)-19,23-dichloro-10-{[2-(1,1-dioxo-1,2,3,6-tetrahydro-1λ^6-thiopyran-4-yl)pyrimidin-4-yl]methoxy}-1-(4-fluorophenyl)-20,22-dimethyl-16-[(4-methylpiperazin-1-yl)methyl]-7,8,15,16-tetrahydro-18,21-etheno-13,9-(metheno)-6,14,17-trioxa-2-thia-3,5-diazacyclononadeca[1,2,3-cd]indene-7-carboxylic Acid], the IC50 in assay [1] was 0.00123 µM. The IC50 in assay [2] turned out to be 0.00242 µM. Further, in assay [3], the Ki stood at 0.276 nM and the pKi was 10.80.
Take `Cc1c(Cl)c2c(Cl)c(C)c1-c1c(-c3ccc(F)cc3)sc3ncnc(c13)O[C@@H](C(=O)O)Cc1cc(ccc1OCc1ccnc(N3C[C@@H]4[C@H](C3)[C@H]4C(=O)O)n1)OC[C@@H](CN1CCN(C)CC1)O2` [Example 36, (7R,16R)-10-({2-[(1R,5S,6r)-6-carboxy-3-azabicyclo[3,1,0]hexan-3-yl]pyrimidin-4-yl}methoxy)-19,23-dichloro-1-(4-fluorophenyl)-20,22-dimethyl-16-[(4-methylpiperazin-1-yl)methyl]-7,8,15,16-tetrahydro-18,21-etheno-13,9-(metheno)-6,14,17-trioxa-2-thia-3,5-diazacyclononadeca[1,2,3-cd]indene-7-carboxylic Acid]: the IC50 in assay [1] came out at 0.32 µM. Also, the IC50 in assay [2] amounted to 0.653 µM. In assay [3], the Ki stood at 1.16 nM and the pKi is 9.84.

These data come from patent publication US20250313572A1, “MACROCYCLIC MCL-1 INHIBITORS AND METHODS OF USE” (AbbVie Inc., priority 2017, published 2025).
